# What was measured:
# HsTRPA1 [1] = biological target: T1, HsTRPA1 (Homo sapiens, UniProt O75762); experiment: two-electrode voltage clamp, Xenopus oocytes; assay type: cell-based
# T1 construct: gene TRPA1; cDNA construct from Saito and Tominaga, cRNA injected into Xenopus laevis oocytes; UniProt id printed for the modelled HsTRPA1 (residues 401-1119)
# HsTRPA1 [2] = biological target: T1, HsTRPA1; experiment: two-electrode voltage clamp, Xenopus oocytes; assay type: cell-based; details: agonist, ND96 pH 7.5
# T1 sequence (O75762 whole entry, the tested form may be a part): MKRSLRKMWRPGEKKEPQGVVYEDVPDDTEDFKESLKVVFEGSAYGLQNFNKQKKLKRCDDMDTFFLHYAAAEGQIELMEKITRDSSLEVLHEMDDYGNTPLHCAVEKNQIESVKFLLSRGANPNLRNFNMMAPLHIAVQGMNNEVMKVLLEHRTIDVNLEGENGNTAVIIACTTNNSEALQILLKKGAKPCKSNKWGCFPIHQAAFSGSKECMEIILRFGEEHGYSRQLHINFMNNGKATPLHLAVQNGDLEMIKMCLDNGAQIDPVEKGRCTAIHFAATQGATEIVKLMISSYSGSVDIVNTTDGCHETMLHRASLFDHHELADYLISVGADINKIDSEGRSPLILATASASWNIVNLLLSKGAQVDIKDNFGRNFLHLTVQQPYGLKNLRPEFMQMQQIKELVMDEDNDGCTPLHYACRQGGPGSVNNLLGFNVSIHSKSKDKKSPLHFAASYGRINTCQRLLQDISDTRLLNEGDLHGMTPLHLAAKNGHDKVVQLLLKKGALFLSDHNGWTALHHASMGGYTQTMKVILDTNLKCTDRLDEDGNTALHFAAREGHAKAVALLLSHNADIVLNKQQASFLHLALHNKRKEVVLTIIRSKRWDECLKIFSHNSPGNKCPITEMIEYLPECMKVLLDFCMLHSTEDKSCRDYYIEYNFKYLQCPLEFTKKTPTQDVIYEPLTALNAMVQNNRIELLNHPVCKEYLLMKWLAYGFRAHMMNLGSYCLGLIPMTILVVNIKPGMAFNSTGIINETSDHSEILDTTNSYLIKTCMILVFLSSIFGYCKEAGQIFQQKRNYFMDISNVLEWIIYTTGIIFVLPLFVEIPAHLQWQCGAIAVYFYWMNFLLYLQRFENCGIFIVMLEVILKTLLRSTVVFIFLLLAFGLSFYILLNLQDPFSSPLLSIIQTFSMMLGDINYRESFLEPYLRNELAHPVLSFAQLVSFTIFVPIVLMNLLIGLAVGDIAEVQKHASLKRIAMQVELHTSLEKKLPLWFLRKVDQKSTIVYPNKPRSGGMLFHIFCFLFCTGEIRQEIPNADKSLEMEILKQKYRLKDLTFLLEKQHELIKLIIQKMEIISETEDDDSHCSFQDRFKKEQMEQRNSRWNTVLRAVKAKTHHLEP
SMILES,EC50 (HsTRPA1 [1]) [nM],% by which ΔIm at 1000 μM is lower than that of 10 μM CDIAL (HsTRPA1 [2]) [%]
CC(=O)O[C@@H]1C=C(C=O)[C@](O)(C=O)[C@@]2(C)CCCC(C)(C)[C@H]12 [CDIAL],2250,–
COCCCN(C(=O)CCl)c1nc(-c2ccc(OC)cc2)cs1 [JT010],800,–
CC1=COC(=O)C2C(C)CCC12 (stereo not drawn) [nepetalactone],–,98.8 ± 0.46

# From article doi:10.64898/2025.12.09.693172, “Agonism of mosquito and human transient receptor potential ankyrin 1 (TRPA1) channels by the natural drimane sesquiterpene cinnamodial” (bioRxiv, 2025)
